Source: patent publication US11014895B2, “Heterocyclic urea compound, and drug composition and application thereof” (CHINA PHARMACEUTICAL UNIVERSITY, priority 2017, dated 2021)

Columns and labels:
[1] = biological target: T1, IDO1 enzyme in the Hela cell (Homo sapiens, UniProt P14902); assay: Cell activity: interferon γ-stimulated Hela cells, absorbance of supernatant at 480 nm; format: cell-based; details: interferon γ 100 ng/ml, 72 hours
T1 construct: endogenous in cells; host or cells: HeLa cells stimulated with interferon γ (100 ng/ml)
Experimental: (2) Method for Determining Cell Activity
Hela cells were cultured and passaged in a DMEM medium supplemented with antibiotics in a 37° C. CO2 incubator, inoculated into a 96-well plate for overnight culture, then 1 μl of heterocyclic urea compound with appropriate concentration was added to each well, and then 100 μl of interferon γ (final concentration was 100 ng/ml) was added. After the cells were continuously cultured for 72 hours, 70 μl of cell culture supernatant was added to a 96-well V-bottom plate, 5 μl of trichloroacetic acid (6.1 N) was added to each well, incubated at 50° C. for 30 min, then taken out and centrifuged at […] for 10 min. The above centrifuged supernatant was transferred to a 384-well microplate (20 μl/well), then 20 μl of 2% didimethylaminobenzaldehyde acetic acid solution was added to each well, shaken and mixed evenly, then photometric absorption was performed at 480 nm, and values were measured.

IDO1 enzyme = IDO1 enzyme (Homo sapiens, UniProt P14902); assay: Determination of biochemical activity of IDO1 enzyme (absorbance at 320 nm); details: room temperature, 3 hours
Experimental: (1) Method for Determining Biochemical Activity of IDO1 Enzyme
Firstly, 15 μl of buffer solution of sodium hydrogen phosphate (PH:7-8), 5 μl of reaction buffer solution containing a proper amount of IDO-1 enzyme and heterocyclic urea compound prepared by the invention were added into wells of a microplate, mixed evenly, and reacted at room temperature for 3 hours; then a light absorption value at 320 nm wavelength was detected by using Envision Multilabel Reader of PE company, an inhibition rate of the heterocyclic urea compound on the enzyme reaction was calculated according to an absorption ratio, and an IC50 value of the heterocyclic urea compound was calculated through analysis by GraphPad.

T1 sequence (P14902 whole entry): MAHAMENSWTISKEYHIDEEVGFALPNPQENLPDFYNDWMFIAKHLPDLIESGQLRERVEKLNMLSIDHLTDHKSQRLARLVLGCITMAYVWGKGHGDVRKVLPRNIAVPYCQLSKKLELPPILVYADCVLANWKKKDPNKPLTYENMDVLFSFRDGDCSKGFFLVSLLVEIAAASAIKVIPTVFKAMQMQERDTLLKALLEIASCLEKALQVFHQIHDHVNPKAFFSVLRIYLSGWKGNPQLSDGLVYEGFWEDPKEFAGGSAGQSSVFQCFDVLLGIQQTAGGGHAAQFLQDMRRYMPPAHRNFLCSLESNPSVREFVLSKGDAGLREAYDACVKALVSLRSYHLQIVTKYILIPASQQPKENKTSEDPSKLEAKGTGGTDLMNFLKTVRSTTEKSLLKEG
Chain of IDO1 enzyme (P14902 whole entry): as above

SMILES	IC50 [1] [µM]	IC50 (IDO1 enzyme) [µM]
O/N=C(\Nc1ccc(F)c(Cl)c1)c1nocc1NC(=S)Nc1ccccc1 [Embodiment 131, (Z)-1-(4-(N-(3-chloro-4-fluorophenyl)-N′-hydroxyaminoiminomethyl)-isoxazole-3-substituted)-4-(phenyl)thiourea]	0.1 to 1	0.1 to 1
N=C(Nc1ccccc1)Nc1conc1/C(=N/O)Nc1ccc(F)c(Cl)c1 [Embodiment 155, (Z)-1-(4-(N-(3-chloro-4-fluorophenyl)-N′-hydroxyaminoiminomethyl)-isoxazole-3-substituted)-4-phenylguanidine]	0.1 to 1	0.1 to 1
NCCCNC(=O)Nc1nocc1/C(=N/O)Nc1ccc(F)c(Br)c1 [Embodiment 88, (Z)-1-(4-(N-(3-bromo-4-fluorophenyl)-N′-hydroxyaminoiminomethyl)-isoxazole-3-substituted)-3-(3-propyl)urea]	< 0.001	< 0.001
COc1ccc(NC(=N)Nc2conc2/C(=N/O)Nc2ccc(F)c(Cl)c2)cc1 [Embodiment 154, (Z)-1-(4-(N-(3-chloro-4-fluorophenyl)-N′-hydroxyaminoiminomethyl)-isoxazole-3-substituted)-4-(4-methoxyphenyl)guanidine]	0.1 to 1	0.1 to 1
O=C(Nc1ccc(F)cc1)Nc1nonc1/C(=N/O)Nc1ccc(F)c(Br)c1 [Embodiment 5, (Z)-1-(4-(N-(4-bromo-3-fluorophenyl)-N′-hydroxyaminoiminomethyl)-1,2,5-oxadiazole-3-substituted)-3-(4-fluorophenyl)urea]	> 1	> 1
NC1CCC(NC(=O)Nc2nonc2/C(=N/O)Nc2ccc(F)c(Cl)c2)CC1 (stereo not shown) [Embodiment 26]	< 0.001	< 0.001
O=C(Nc1ncncn1)Nc1nonc1/C(=N/O)Nc1ccc(F)c(Br)c1 [Embodiment 44, (Z)-1-(4-(N-(3-bromo-4-fluorophenyl)-N′-hydroxyaminoiminomethyl)-1,2,5-oxadiazole-3-substituted)-3-(1,3,5-triazine-2-substituted)urea]	> 1	> 1
O=C(Nc1cocc1/C(=N/O)Nc1ccc(F)c(Br)c1)NC1CCCCC1 [Embodiment 61, (Z)-1-(4-(N-(3-bromo-4-fluorophenyl)-N′-hydroxyaminoiminomethyl)-furan-3-substituted)-3-cyclohexylurea]	0.1 to 1	0.1 to 1
NC1CCC(NC(=O)Nc2nocc2/C(=N/O)Nc2ccc(F)c(Br)c2)CC1 (stereo not shown) [Embodiment 87, (Z)-1-(4-(N-(3-bromo-4-fluorophenyl)-N′-hydroxyaminoiminomethyl)-isoxazole-3-substituted)-3-(4-aminocyclohexyl)urea]	< 0.001	< 0.001
O=C(Nc1ccc(O)cc1)Nc1nonc1/C(=N/O)Nc1ccc(F)c(Cl)c1 [Embodiment 23]	< 0.001	< 0.001
N=C(Nc1ccc(C(F)(F)F)cc1)Nc1nonc1/C(=N/O)Nc1ccc(F)c(Br)c1 [Embodiment 143, (Z)-1-(4-(N-(3-bromo-4-fluorophenyl)-N′-hydroxyaminoiminomethyl)-1,2,5-oxadiazole-3-substituted)-3-(4-trifluorophenyl)guanidine]	> 1	> 1
O=C(Nc1cocc1/C(=N/O)Nc1ccc(F)c(Br)c1)NC1CC1 [Embodiment 65]	0.1 to 1	0.1 to 1
O=C(Nc1cocc1/C(=N/O)Nc1ccc(F)c(Br)c1)Nc1cccc2[nH]ccc12 [Embodiment 73, (Z)-1-(4-(N-(3-bromo-4-fluorophenyl)-N′-hydroxyaminoiminomethyl)-furan-3-substituted)-3-(4-aminoindole)urea]	0.1 to 1	0.1 to 1
COc1cccc(NC(=O)Nc2conc2/C(=N/O)Nc2ccc(F)c(Br)c2)c1 [Embodiment 101, (Z)-1-(4-(N-(3-bromo-4-fluorophenyl)-N′-hydroxyaminoiminomethyl)-isoxazole-3-substituted)-4-(3-methoxyphenyl)urea]	0.1 to 1	0.1 to 1
O=C(Nc1ncccn1)Nc1nonc1/C(=N/O)Nc1ccc(F)c(Br)c1 [Embodiment 43, (Z)-1-(4-(N-(3-bromo-4-fluorophenyl)-N′-hydroxyaminoiminomethyl)-1,2,5-oxadiazole-3-substituted)-3-(pyrimidine-2-substituted)urea]	> 1	> 1
COc1cccc(NC(=O)Nc2cocc2/C(=N/O)Nc2ccc(F)c(Br)c2)c1 [Embodiment 59, (Z)-1-(4-(N-(3-bromo-4-fluorophenyl)-N′-hydroxyaminoiminomethyl)-furan-3-substituted)-3-(3-methoxyphenyl)urea]	> 1	> 1
O=C(Nc1nonc1/C(=N/O)Nc1ccc(F)c(Br)c1)NC1CCCCCC1 [Embodiment 33, (Z)-1-(4-(N-(3-bromo-4-fluorophenyl)-N′-hydroxyaminoiminomethyl)-1,2,5-oxadiazole-3-substituted)-3-cycloheptylurea]	0.1 to 1	0.1 to 1
O=C(Nc1ncc[nH]1)Nc1nonc1/C(=N/O)Nc1ccc(F)c(Br)c1 [Embodiment 46, (Z)-1-(4-(N-(3-bromo-4-fluorophenyl)-N′-hydroxyaminoiminomethyl)-1,2,5-oxadiazole-3-substituted)-3-(1H-imidazole-2-substituted)urea]	> 1	> 1
N=C(NCCCO)Nc1nonc1/C(=N/O)Nc1ccc(F)c(Br)c1 [Embodiment 151, (Z)-1-(4-(N-(3-bromo-4-fluorophenyl)-N′-hydroxyaminoiminomethyl)-1,2,5-oxadiazole-3-substituted)-3-(3-hydroxypropyl)guanidine]	< 0.001	< 0.001
N=C(Nc1nonc1/C(=N/O)Nc1ccc(F)c(Br)c1)NC1CCCCC1 [Embodiment 145, (Z)-1-(4-(N-(3-bromo-4-fluorophenyl)-N′-hydroxyaminoiminomethyl)-1,2,5-oxadiazole-3-substituted)-3-cyclohexylguanidine]	< 0.001	< 0.001
N=C(Nc1nonc1/C(=N/O)Nc1ccc(F)c(Br)c1)NC1CC1 [Embodiment 149, (Z)-1-(4-(N-(3-bromo-4-fluorophenyl)-N′-hydroxyaminoiminomethyl)-1,2,5-oxadiazole-3-substituted)-3-(cyclopropyl)guanidine]	> 1	> 1
O=C(Nc1nonc1/C(=N/O)Nc1ccc(F)c(Br)c1)Nc1cccc2[nH]ccc12 [Embodiment 34, (Z)-1-(4-(N-(3-bromo-4-fluorophenyl)-N′-hydroxyaminoiminomethyl)-1,2,5-oxadiazole-3-substituted)-3-(1H-indole-4-substituted)urea]	0.1 to 1	0.1 to 1
O=C(Nc1nonc1/C(=N/O)Nc1ccc(F)c(Br)c1)NC1CCCCC1 [Embodiment 7, (Z)-1-(4-(N-(3-bromo-4-fluorophenyl)-N′-hydroxyaminoiminomethyl)-1,2,5-oxadiazole-3-substituted)-3-cyclohexylurea]	0.1 to 1	0.1 to 1
O=C(Nc1nocc1/C(=N/O)Nc1ccc(F)c(Cl)c1)NC1CCCCC1 [Embodiment 99, (Z)-1-(4-(N-(3-chloro-4-fluorophenyl)-N′-hydroxyaminoiminomethyl)-isoxazole-3-substituted)-3-(cyclohexyl)urea]	0.1 to 1	0.1 to 1
COc1ccc(NC(=O)Nc2cocc2/C(=N/O)Nc2ccc(F)c(Br)c2)cc1 [Embodiment 58, (Z)-1-(4-(N-(3-bromo-4-fluorophenyl)-N′-hydroxyaminoiminomethyl)-furan-3-substituted)-3-(4-methoxyphenyl)urea]	0.1 to 1	0.1 to 1
O=C(Nc1ccccc1)Nc1nonc1/C(=N/O)Nc1ccc(F)c(Br)c1 [Embodiment 19, (Z)-1-(4-(N-(4-bromo-3-fluorophenyl)-N′-hydroxyaminoiminomethyl)-1,2,5-oxadiazole-3-substituted)-3-phenylurea]	0.1 to 1	0.1 to 1
OCCCNC(=S)Nc1nonc1/C(=N/O)Nc1ccc(F)c(Br)c1 [Embodiment 127, (Z)-1-(4-(N-(3-bromo-4-fluorophenyl)-N′-hydroxyaminoiminomethyl)-1,2,5-oxadiazole-3-substituted)-3-(3-hydroxypropyl)thiourea]	< 0.001	< 0.001
O=C(Nc1nocc1/C(=N/O)Nc1ccc(F)c(Br)c1)Nc1c[nH]c2ccccc12 [Embodiment 95, (Z)-1-(4-(N-(3-bromo-4-fluorophenyl)-N′-hydroxyaminoiminomethyl)-isoxazole-3-substituted)-3-(3-aminoindole)urea]	0.1 to 1	0.1 to 1
COc1ccc(NC(=O)Nc2nocc2/C(=N/O)Nc2ccc(F)c(Br)c2)cc1 [Embodiment 79, (Z)-1-(4-(N-(3-bromo-4-fluorophenyl)-N′-hydroxyaminoiminomethyl)-isoxazole-3-substituted)-3-(4-methoxyphenyl)urea]	0.1 to 1	0.1 to 1
